Measured values from US20260131324A1, “A CONTAINER FOR IN VITRO DRUG TESTING” (National University of Singapore, priority 2022, published 2026).

How the values were obtained:
[1] = Diffusion through hydrogel container (version 2.0) in USP apparatus IV, PBS medium; assay type: physicochemical; details: at 8.25 h; caffeine stock solution 4 mg/mL, 1 mL; 100 mL PBS; 34 C
Protocol: The compendial flow-through cell 504 of the USP apparatus IV 502 is an enclosed system with a heating mantle that allows a controlled medium flow from the bottom to the top of the cell 504. The ring 114 was mounted onto a cylindrical mould and the gel composition was filled into the mould. A punch was used to create interior pockets of similar size. The drug formulation 106 was then injected into the interior pocket of the receptacle 102, and the ring 114 was sealed with a rubber plug 116. The USP apparatus IV 502, as well as the various flow-through cells 504, have been described by various pharmacopoeias and related literature. For this diffusion experiment, a SOTAX CP7-35 Piston Pump 506, alone with a fraction collector 508 and the SOTAX CE7 dissolution system, was used. Media 510 was filled into the reservoir 512 with magnetic stirrers running at 150 rpm. The dissolution apparatus was operated in a closed-loop configuration with a constant flow of 8±0.4 mL/min for all experiments. […] Caffeine was quantified with a ultraviolet-visible (UV/Vis) spectrometer. Subsequently, the cumulative diffusion of caffeine was calculated by comparing the diffused amount with the initially added drug concentration. […] In the next step, new containers 100 were evaluated with Actrapid® and […]®. […]

[2] = Proof-of-concept model: diffusion through agarose hydrogel container (version 1.0) in modified flow-through cell; assay type: physicochemical; details: plateau at about 7 h, PBS with Tween 80
Excerpt: FIG. 4A illustrates a hydrogel container 402 (left) and a modified flow-through cell 404 (right) used as a proof-of-concept model for the diffusion experiment shown in the first flow chart 300A of FIG. 3. The proof-of-concept model was designed to affirm the discriminative power of an agarose hydrogel under continuous media flow. Serving as a physicochemical barrier between drug and media, it is supposed to generate data ascertaining differences in diffusion behaviour and gel interaction of closely related drug formulations. For this, Actrapid® (regular human insulin, hexamer) and Apidra® (insulin glulisine) were chosen as model peptide formulations for the initial setup. m-Cresol, present in both formulations, was quantified as well, serving as an internal standard.
A cylindrical gel that forms both the physicochemical barrier and pocket was prepared with the help of custom-made plastic receptacles. The gel consists of 2% (w/w) agarose dissolved in PBS. […] After cooling at room temperature, the gel is formed and ready to use. […]
FIG. 4B illustrates an assay setup for the proof-of-concept model of FIG. 4A for in vitro drug testing. […] Quantification of insulin and m-cresol in the medium was then carried out by HPLC. Subsequently, the cumulative diffusion of the model drugs was calculated by comparing the diffused amount with the initially added drug concentration. […]

Row | SMILES | cumulative diffusion of caffeine [1] | cumulative diffusion of m-cresol, maximum ([2]; m-cresol inside Apidra) | cumulative diffusion of m-cresol, plateau ([2]; m-cresol inside the Actrapid formulation)
1 | Cn1c(=O)c2c(ncn2C)n(C)c1=O [caffeine] | around 101±3% | – | –
2 | Cc1cccc(O)c1 [m-cresol, m-Cresol] | – | 88±0.2% | 84±1.0%
